# In patent publication US10871495B2, “Biomarkers of polycystic kidney disease and uses thereof” (Genzyme Corporation, priority 2014, dated 2020):
# Assays:
# jck mice [1] = experiment: Immunoblot of marker levels in urinary exosomes of jck mice treated with GCS inhibitor; assay type: in vivo, mouse; details: jck mice treated continuously for 5 weeks (0.225% in diet), vs control mice, FIG. 3
# Protocol: (§1) C57BL/6J jck/+ mice were maintained for crossing. The cystic jck/jck mice were genotyped as previously described (Smith et al., J. Am. Soc. Nephrol. 17:2821-2831, 2006). Pcy mice were maintained on a CD1 genetic background as previously described (Takahashi et al., J. Am. Soc. Nephrol. 1:980-989, 1991). GCS inhibitor C9 was administered ad libitum to jck and pcy mice by mixing in powdered 5053 diet at 0.225% from 26 to 64 days and 4 to 30 weeks of age, respectively (as described in Natoli et al., Nature Medicine 16:788-792, 2010). Urine samples from the mice were collected in metabolic cages over a 24-hour period and stored at −80° C.
# (§2) Exosomes were isolated from pooled urine samples (animal studies) or mid void urine samples (human samples) by ultracentrifugation at 100,000 g for 2 hours. Following ultracentrifugation, the exosome pellet was resuspended in 2.5× Laemmli Buffer (5×: 15% SDS, 0.575 M sucrose, 0.325 M Tris, pH 6.8, 5% beta-mercapto ethanol, and 0.002% bromophenol blue) for sodium dodecyl sulfate-polyacrylamide gel electrophoresis (SDS-PAGE) and immunoblot analysis.
# (§3) Kidney samples were homogenized on ice in radioimmunoprecipitation assay (RIPA) buffer (Boston BioProducts, Ashland, Mass.) containing 1 mM dithiothreitol, 5 mM ethylenediaminetetraacetic acid (EDTA), 2 mM NaF, 1 mM Na3VO4 (all supplied by Sigma-Aldrich, St. Louis, Mo.), Pefabloc SC and Complete protease inhibitor cocktail (both from Roche, Basel, Switzerland). Protein concentration was determined by BCA protein assay (Pierce, Rockford, Ill.). The samples were loaded onto 4-12% NuPage Bis-Tris gels following the manufacturer's protocols (Invitrogen, Grand Island, N.Y.). Electrophoretic transfer of the proteins in the gel onto nitrocellulose was performed in a semi-dry apparatus according to the manufacturer's instructions (Invitrogen). After electrophoretic transfer, the resulting membranes were blocked with 5% non-fat milk in tris-buffered saline (TBS) containing 0.1% Tween-20 and incubated with primary antibodies overnight at 4° C. The primary antibodies were detected with horseradish peroxidase-labeled secondary antibodies at a 1:10,000 dilution (Promega, Fitchburg, Wis.). […] The primary antibodies to the following antigenes were used: PCNA (DAKO, Carpinteria, Calif.), cyclin D1, S6, phospho-S6 (Ser235/236), phospho-AKT (ser473), total ERK, phospho-ERK (Thr202/Tyr204) (Cell Signaling Technology, Danvers, Mass.), cyclin D3, total AKT, caspase-2, RBBP (BD Biosciences, Billerica, Mass.), MEK1 (Upstate Biotechnology, Lake Placid, N.Y.), aquaporin-2 (Millipore, Billerica, Mass.) β-actin, TSG101 (Abcam, Cambridge, Mass.), ALIX (Santa Cruz Biotechnology, Dallas, Tex.), and GAPDH (US Biological, Salem, Mass.).
# A further set of experiments was performed to determine whether the same markers could be used to determine the efficacy of a treatment for PKD in a patient having PKD. In these experiments, urine samples from jck mice that were treated with GCS inhibitor C9 continuously for 5 weeks were gathered (FIG. 2) and the levels of each biomarker were analyzed in urine exosomes and kidney lysate samples. […] The data in FIG. 3 show, e.g., that the levels of PCNA, cyclin D3, RBBP, MEK, Erk, phosphorylated ERK, Akt, phosphorylated Akt, S6, phosphorylated S6, and caspase-2 are decreased in kidney lysate samples from jck mice treated with a GCS inhibitor as compared to the levels in kidney lysate samples from control mice. […]
# pcy mice [2] = experiment: Immunoblot of marker levels in kidney lysate of pcy mice treated with GCS inhibitor; assay type: in vivo, mouse; details: pcy mice treated for thirty weeks (0.225% in diet), vs untreated mice, FIG. 4
# Protocol: as §1, §3
# A further set of experiments was performed to validate the use of the markers described herein for both diagnosing and determining the efficacy of treatment in human patients having PKD. In these experiments, another mouse model of PKD, pcy mice were used. The pcy mouse model is a slowly progressive adult form of PKD characterized by cyst formation and fibrosis. […] In these experiments, pcy mice were left untreated or were treated with GCS inhibitor C9 for thirty weeks, and then the expression levels of the markers described herein were determined in both kidney lysate and urine exosome samples. The data from these experiments show the levels of the markers were decreased in both the kidney lysate samples and the urine exosome samples from pcy mice treated with GCS inhibitor C9 as compared to the corresponding levels in the untreated mice (FIG. 4). […] The data in FIG. 4 also show, for example, that the levels of PCNA, phosphorylated Erk, phosphorylated Akt, and S6 are decreased in urinary exosomes from pcy mice treated with GCS inhibitor C9 as compared to the untreated mice.
# jck mice [3] = experiment: Immunoblot of marker levels in kidney lysate of jck mice treated with GCS inhibitor; assay type: in vivo, mouse; details: jck mice treated continuously for 5 weeks (0.225% in diet), vs control mice, FIG. 3
# Protocol: as §1, §3
# A further set of experiments was performed to determine whether the same markers could be used to determine the efficacy of a treatment for PKD in a patient having PKD. In these experiments, urine samples from jck mice that were treated with GCS inhibitor C9 continuously for 5 weeks were gathered (FIG. 2) and the levels of each biomarker were analyzed in urine exosomes and kidney lysate samples. […] The data in FIG. 3 show, e.g., that the levels of PCNA, cyclin D3, RBBP, MEK, Erk, phosphorylated ERK, Akt, phosphorylated Akt, S6, phosphorylated S6, and caspase-2 are decreased in kidney lysate samples from jck mice treated with a GCS inhibitor as compared to the levels in kidney lysate samples from control mice. The data in FIG. 3 also show, e.g., that the levels of PCNA, cyclin D1, cyclin D3, MEK, and S6 are decreased in urinary exosomes from jck mice treated with a GCS inhibitor as compared to the levels in urinary exosomes from control mice.
# pcy mice [4] = details: Natoli et al., Nature Medicine 16:788-792, 2010; cited from earlier work
# pcy mice [5] = experiment: Immunoblot of marker levels in urinary exosomes of pcy mice treated with GCS inhibitor; assay type: in vivo, mouse; details: pcy mice treated for thirty weeks (0.225% in diet), vs untreated mice, FIG. 4
# Protocol: as §1, §2
# Kidney samples were homogenized on ice in radioimmunoprecipitation assay (RIPA) buffer (Boston BioProducts, Ashland, Mass.) containing 1 mM dithiothreitol, 5 mM ethylenediaminetetraacetic acid (EDTA), 2 mM NaF, 1 mM Na3VO4 (all supplied by Sigma-Aldrich, St. Louis, Mo.), Pefabloc SC and Complete protease inhibitor cocktail (both from Roche, Basel, Switzerland). Protein concentration was determined by BCA protein assay (Pierce, Rockford, Ill.). The samples were loaded onto 4-12% NuPage Bis-Tris gels following the manufacturer's protocols (Invitrogen, Grand Island, N.Y.). Electrophoretic transfer of the proteins in the gel onto nitrocellulose was performed in a semi-dry apparatus according to the manufacturer's instructions (Invitrogen). After electrophoretic transfer, the resulting membranes were blocked with 5% non-fat milk in tris-buffered saline (TBS) containing 0.1% Tween-20 and incubated with primary antibodies overnight at 4° C. The primary antibodies were detected with horseradish peroxidase-labeled secondary antibodies at a 1:10,000 dilution (Promega, Fitchburg, Wis.). […]
# A further set of experiments was performed to validate the use of the markers described herein for both diagnosing and determining the efficacy of treatment in human patients having PKD. […] In these experiments, pcy mice were left untreated or were treated with GCS inhibitor C9 for thirty weeks, and then the expression levels of the markers described herein were determined in both kidney lysate and urine exosome samples. […]
smiles,measurement,setting,value
CCCCCCCCC(=O)N[C@H](CN1CCCC1)[C@H](O)c1ccc2c(c1)OCCO2 [GCS inhibitor C9],level of MEK,jck mice [1],decreased
same,level of PCNA,jck mice [1],decreased
same,level of S6,jck mice [1],decreased
same,level of cyclin D1,jck mice [1],decreased
same,level of cyclin D3,jck mice [1],decreased
same,level of PCNA,pcy mice [2],decreased
same,level of S6,pcy mice [2],decreased
same,level of phosphorylated Akt,pcy mice [2],decreased
same,level of phosphorylated Erk,pcy mice [2],decreased
same,level of phosphorylated S6,pcy mice [2],decreased
same,level of Akt,jck mice [3],decreased
same,level of Erk,jck mice [3],decreased
same,level of MEK,jck mice [3],decreased
same,level of PCNA,jck mice [3],decreased
same,level of RBBP,jck mice [3],decreased
same,level of S6,jck mice [3],decreased
same,level of caspase-2,jck mice [3],decreased
same,level of cyclin D3,jck mice [3],decreased
same,level of phosphorylated Akt,jck mice [3],decreased
same,level of phosphorylated ERK,jck mice [3],decreased
same,level of phosphorylated S6,jck mice [3],decreased
same,cystogenesis,pcy mice [4],effective inhibition
same,fibrogenesis,pcy mice [4],effective inhibition
same,level of PCNA,pcy mice [5],decreased
same,level of S6,pcy mice [5],decreased
same,level of phosphorylated Akt,pcy mice [5],decreased
same,level of phosphorylated Erk,pcy mice [5],decreased
